In brackets after ≈: the same amount, converted by molar mass.
Experiments:
[1] = MIC in the presence of serum; type: cell-based; details: 10% serum
[2] = tested on: Streptococcus agalactiae; assay: MIC against Streptococcus agalactiae; type: cell-based; details: N 535
[3] = tested on: pathogenic bacteria; type: cell-based
[4] = tested on: Neisseria gonorrhoeae; assay: MIC against Neisseria gonorrhoeae; type: cell-based; details: N 34
[5] = tested on: Streptococcus pyogenes; assay: MIC against Streptococcus pyogenes; type: cell-based
[6] = tested on: Haemophilus parainfluenzae; assay: MIC against Haemophilus parainfluenzae; type: cell-based; details: N 11
[7] = tested on: phospholipase; assay: Phospholipase inhibition in other cell lines; type: cell-based
[8] = tested on: Immortalized human meibomian gland epithelial cells (HMGECs); assay: HMGEC lysosome and neutral lipid accumulation, differentiation and proliferation; type: cell-based
Protocol: EXAMPLE. Immortalized human meibomian gland epithelial cells (HMGECs) are cultured in the presence of vehicle or test compound, such as Soli (2, 10, or 20 μg/ml) for 1 to 7 days under proliferating (keratinocyte serum-free medium; KSFM) or differentiating (DMEM/F12 plus 10% fetal bovine serum) conditions. A positive control (epidermal growth factor and bovine pituitary extract for proliferation; Azi for differentiation) and a negative control (media only) are included with the experiments. Additional details are described in JAMA Ophthalmol 132(2): 226-228 (Feb. 1, 2014) and Current Eye Research, 1-6 (2017), each of which is incorporated herein by reference.
HMGECs are evaluated for cell number, neutral lipid content (LipidTox) and lysosome accumulation (LysoTracker). […] Strong lysosomal effects are observed with the 10 μg/ml dose of Soli (relative stimulation=30), on the first day of dosing, and those effects are statistically different (p<0.01) from the control group (relative stimulation=13). In contrast, the 10 μg/m1Azi dose is not statistically different from the control group (relative stimulation=18) until day 3. […] Compounds described herein, such a Soli, affect lysosome and lipid accumulation and differentiation of HMGECs. The effect of Soli on lysosome appearance is faster than that of Azi.

[9] = tested on: CA-MRSA; assay: MIC against CA-MRSA; type: cell-based, Staphylococcus aureus; details: N 30
[10] = tested on: Mycoplasma hominis; assay: MIC against Mycoplasma hominis; type: cell-based; details: N 13
[11] = tested on: Streptococci (Groups C, F, G); assay: MIC against Streptococci (Groups C, F, G); type: cell-based; details: N 185
[12] = tested on: MSSA; assay: MIC against MSSA (31 species); type: cell-based
[13] = tested on: Mycoplasma pneumoniae; assay: MIC against Mycoplasma pneumoniae; type: cell-based
[14] = Corneal permeability, Franz-Cell Diffusion Apparatus; type: in vitro ADME, bovine (calf)
Protocol: EXAMPLE. Corneal Permeability. Corneal permeability is determined using conventional protocols. Briefly, corneal permeability is determined on freshly excised bovine (calf) cornea using a Franz-Cell Diffusion Apparatus generally with n=3/group. Freshly excised calf cornea are stored until use in hydrating solution containing glutathione and buffer. The Apparatus includes a donor chamber on the top where a predetermined volume of the formulation is pipetted and a jacketed receptor cell with a sampling side arm. The joint between the donor and receptor cell is upward-convex, mimicking the shape of the cornea. The corneal membrane is placed on the ball joint with the cornea facing the donor chamber. The Apparatus is clamped to secure the cells with the donor and receptor chambers aligned. […] The volume is recorded. […] Test samples are added in rapid succession by depositing 200 μL of the formulation into each donor chamber using a calibrated pipet and the times recorded. […] Flux can be calculated by the formula: J=Q/(A·t), where Q is the quantity (micrograms) of compound traversing the membrane in time t (minutes), and A is the area of exposed membrane in cm^2. […] After completion of the diffusion, corneas are weighed to determine the quantity of bound test compound in the cornea, and the corneal thicknesses of each cornea is measured at the point of diffusion (the center) using Vernier calipers. […]

[15] = tested on: Haemophilus influenzae; assay: MIC against Haemophilus influenzae; type: cell-based
[16] = Streptococcus pyogenes (a), N 407

## CC[C@H]1OC(=O)[C@@](C)(F)C(=O)[C@H](C)[C@@H](O[C@@H]2O[C@H](C)C[C@H](N(C)C)[C@H]2O)[C@](C)(OC)C[C@@H](C)C(=O)[C@H](C)[C@H]2N(CCCCn3cc(-c4cccc(N)c4)nn3)C(=O)O[C@]12C [Solithromycin, solithromycin]
[1]
  change in MIC in the presence of serum: 2 fold
[2]
  MIC50: ≤30 ng/mL
  MIC90: ≤30 ng/mL
  MIC Range: ≤0.03-0.5 ^ μg/mL
[3]
  activity against Azi resistant strains: active against all Azi resistant strains tested
  potency relative to Azi: 8-16 fold
[3]; greater activity
  activity relative to conventional macrolides: 10 fold
[3]; intracellular
  intracellular activity relative to Azi: 10 fold
[4]
  MIC50: 60 ng/mL (≈ 71 nM)
  MIC90: 120 ng/mL (≈ 142 nM)
  MIC Range: 30 to 250 ng/mL
[5]; Streptococcus Pyogenes (100 strains)
  MIC90: 30 ng/mL (≈ 35.5 nM)
[5]; [16]
  MIC50: ≤30 ng/mL
  MIC90: ≤30 ng/mL
  MIC Range: ≤0.03-0.5 ^ μg/mL
[5]; Streptococcus pyogenes, N 407
  MIC50: ≤30 ng/mL
  MIC90: ≤30 ng/mL
  MIC Range: ≤0.03-0.5 ^ μg/mL
[6]
  MIC50: 2000 ng/mL (≈ 2370 nM)
  MIC90: 2000 ng/mL (≈ 2370 nM)
  MIC Range: 1000 to 2000 ng/mL
[7]; after dosing is stopped
  reversibility of phospholipase inhibition: rapidly reversible
[7]; other cell lines, read-out: IC50 for phospholipase inhibition
  IC50: 100 µM
[8]; 10 μg/ml dose, first day of dosing, LysoTracker
  lysosomal effects, relative stimulation: 30
[8]; 2, 10 or 20 μg/ml, 1 to 7 days
  accumulation of neutral lipids and lysosomes in HMGECs: rapid and dose-dependent increase
[8]; 7-day dosing period
  proliferation of HMGECs: does not cause unwanted proliferation
[9]
  MIC50: 120 ng/mL (≈ 142 nM)
  MIC90: 120 ng/mL (≈ 142 nM)
  MIC Range: 60 to 120 ng/mL
[10]
  MIC50: 4 ng/mL (≈ 4.73 nM)
  MIC90: 8 ng/mL (≈ 9.47 nM)
  MIC Range: 2 to 8 ng/mL
[11]
  MIC50: ≤30 ng/mL
  MIC90: ≤30 ng/mL
  MIC Range: ≤0.03-0.25^ μg/mL
[12]
  I = intermediate susceptibility: 0%
  MIC50: 15 ng/mL (≈ 17.8 nM)
  MIC90: 30 ng/mL (≈ 35.5 nM)
  MIC Range: 4 to 64000 ng/mL
  NS = not susceptible: 6%
  S = susceptible: 94%
[13]; Mycoplasma pneumoniae (38 strains)
  MIC90: 0.125 ng/mL (≈ 0.148 nM)
[13]; Mycoplasma pneumoniae, N 38
  MIC50: 0.032 ng/mL (≈ 0.0379 nM)
  MIC90: 0.125 ng/mL (≈ 0.148 nM)
  MIC Range: ≤6.3e-05 to 500 ng/mL
[14]; bovine cornea, Franz cell
  time after administration at which compound is observed in receptor fluid: ≤ 1 h
[14]; within 1 h of administration
  concentration in receptor fluid: > 1000 ng/mL
[15]; Haemophilus influenzae (100 strains)
  MIC90: 2000 ng/mL (≈ 2370 nM)
[15]; Haemophilus influenzae, N 100
  MIC50: 1000 ng/mL (≈ 1180 nM)
  MIC90: 2000 ng/mL (≈ 2370 nM)
  MIC Range: 120 to 4000 ng/mL

From patent publication US20210137961A1, “Compositions and Methods for Treating Dry Eye Diseases” (priority 2017, published 2021)
